From ChEMBL document CHEMBL2203069, “Synthesis and structure-activity relationships of a novel series of pyrimidines as potent inhibitors of TBK1/IKKε kinases” (Bioorg Med Chem Lett, 2012)

Tests used:
[1] = molecular target: T1, Serine/threonine-protein kinase TBK1 (Homo sapiens, UniProt Q9UHD2); experiment: Inhibition of TBK1 by radiometry
T1 sequence (Q9UHD2 whole entry): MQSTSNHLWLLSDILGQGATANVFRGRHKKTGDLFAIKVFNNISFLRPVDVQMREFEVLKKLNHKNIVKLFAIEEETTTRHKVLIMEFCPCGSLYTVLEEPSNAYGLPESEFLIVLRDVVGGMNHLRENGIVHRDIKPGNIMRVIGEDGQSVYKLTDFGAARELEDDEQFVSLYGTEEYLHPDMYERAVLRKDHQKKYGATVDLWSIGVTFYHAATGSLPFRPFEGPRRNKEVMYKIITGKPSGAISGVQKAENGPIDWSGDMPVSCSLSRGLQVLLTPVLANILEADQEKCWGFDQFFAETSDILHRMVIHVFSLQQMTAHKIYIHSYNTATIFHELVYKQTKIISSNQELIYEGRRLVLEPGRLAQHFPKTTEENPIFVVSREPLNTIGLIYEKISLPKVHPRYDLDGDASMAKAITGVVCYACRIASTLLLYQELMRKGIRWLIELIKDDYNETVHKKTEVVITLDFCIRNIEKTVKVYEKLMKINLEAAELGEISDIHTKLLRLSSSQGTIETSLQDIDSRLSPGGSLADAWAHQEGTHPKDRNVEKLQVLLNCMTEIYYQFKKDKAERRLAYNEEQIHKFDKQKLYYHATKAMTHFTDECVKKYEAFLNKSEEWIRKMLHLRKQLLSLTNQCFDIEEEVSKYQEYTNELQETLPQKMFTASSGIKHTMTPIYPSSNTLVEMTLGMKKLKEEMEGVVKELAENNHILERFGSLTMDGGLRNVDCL

[2] = molecular target: T2, Serine/threonine-protein kinase TBK1 (Mus musculus, UniProt Q9WUN2); experiment: Inhibition of TBK1-mediated RANTES release in LPS-stimulated mouse RAW264.7 cells compound incubated for 30 mins prior LPS challenge measured after 6 hrs by ELISA; type: cell-based
T2 sequence (Q9WUN2 whole entry): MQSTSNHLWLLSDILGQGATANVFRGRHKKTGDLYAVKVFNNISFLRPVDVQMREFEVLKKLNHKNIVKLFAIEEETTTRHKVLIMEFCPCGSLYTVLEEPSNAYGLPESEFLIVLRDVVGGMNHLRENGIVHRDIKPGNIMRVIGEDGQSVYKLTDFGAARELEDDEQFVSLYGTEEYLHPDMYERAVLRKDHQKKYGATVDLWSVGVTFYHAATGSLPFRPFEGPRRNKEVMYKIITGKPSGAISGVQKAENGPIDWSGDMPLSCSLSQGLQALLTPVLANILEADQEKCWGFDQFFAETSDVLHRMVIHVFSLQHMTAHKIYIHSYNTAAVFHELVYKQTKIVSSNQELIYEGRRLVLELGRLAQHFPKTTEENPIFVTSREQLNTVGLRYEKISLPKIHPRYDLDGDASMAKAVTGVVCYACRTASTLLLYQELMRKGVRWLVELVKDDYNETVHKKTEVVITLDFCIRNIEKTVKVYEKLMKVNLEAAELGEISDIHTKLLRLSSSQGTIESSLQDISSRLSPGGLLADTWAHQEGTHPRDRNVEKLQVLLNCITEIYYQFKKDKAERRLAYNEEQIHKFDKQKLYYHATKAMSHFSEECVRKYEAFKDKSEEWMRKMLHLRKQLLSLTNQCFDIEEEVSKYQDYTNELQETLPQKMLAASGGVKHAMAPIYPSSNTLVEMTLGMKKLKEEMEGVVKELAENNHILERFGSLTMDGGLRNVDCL

[3] = molecular target: T3, 3-phosphoinositide-dependent protein kinase 1 (Homo sapiens, UniProt O15530); experiment: Inhibition of PDK1 by radiometry
T3 sequence (O15530 whole entry): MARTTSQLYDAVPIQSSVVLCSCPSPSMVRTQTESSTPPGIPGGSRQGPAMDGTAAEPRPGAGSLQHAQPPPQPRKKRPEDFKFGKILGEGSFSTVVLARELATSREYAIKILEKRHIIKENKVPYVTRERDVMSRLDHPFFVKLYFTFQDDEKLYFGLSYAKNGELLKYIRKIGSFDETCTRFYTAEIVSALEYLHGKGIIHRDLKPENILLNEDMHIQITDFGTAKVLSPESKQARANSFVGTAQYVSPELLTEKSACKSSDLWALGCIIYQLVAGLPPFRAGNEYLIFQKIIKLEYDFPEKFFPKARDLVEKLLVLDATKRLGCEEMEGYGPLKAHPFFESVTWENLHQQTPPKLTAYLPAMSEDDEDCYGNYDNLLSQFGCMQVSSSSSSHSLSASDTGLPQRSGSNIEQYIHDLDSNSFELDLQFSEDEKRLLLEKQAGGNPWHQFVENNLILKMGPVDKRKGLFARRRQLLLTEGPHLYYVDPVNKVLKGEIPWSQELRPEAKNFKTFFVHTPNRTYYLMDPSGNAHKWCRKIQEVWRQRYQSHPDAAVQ

[4] = Metabolic stability in mouse liver microsomes assessed as compound turnover after 30 mins; type: ADME, Microsome; conditions: read-out: Drug metabolism
[5] = Metabolic stability in human liver microsomes assessed as compound turnover after 40 mins; type: ADME, Microsome; conditions: read-out: Drug metabolism
[6] = Permeability from apical to basolateral side of human Caco2 cells; type: ADME, cell-based; conditions: Caco-2, read-out: permeability
[7] = Efflux ratio of permeability from basolateral to apical side to apical to basolateral side in human Caco2 cells; type: ADME, cell-based; conditions: Caco-2

SMILES | IC50 [1] [nM] | IC50 ([2]; read-out: IC50) [nM] | metabolised at 0.5 h [4] [%] | metabolised at 40 min [5] [%] | also measured
O=C(NCCCNc1nc(Nc2cccc(F)c2)ncc1C1CC1)c1cccs1 | 110 | – | – | – | –
O=C(NCCCNc1nc(Nc2cccc(N3CCOCC3)c2)ncc1C1CC1)C1CCC1 | 28 | 580 | – | – | –
O=C(NCCCNc1nc(Nc2cccc(F)c2)ncc1Br)C1CCCC1 | 8 | – | – | – | IC50 [3]: 220 nM
O=C(NCCCNc1nc(Nc2cnn(C3CCCC3)c2)ncc1C1CC1)C1CCC1 | 4 | 93 | 59 | 67 | –
O=C(NCCCNc1nc(Nc2cnn(C3CCC3)c2)ncc1C1CC1)C1CCC1 | 2 | 220 | 61 | 61 | –
O=C(NCCCNc1nc(Nc2cccc(F)c2)ncc1CC1CC1)C1CCC1 | > 1000 | – | – | – | –
CC(=O)N1CCC(C(=O)NCCCNc2nc(Nc3cccc(F)c3)ncc2Br)CC1 | 430 | – | – | – | –
O=C(NCCCNc1nc(Nc2cccc(F)c2)ncc1Br)c1cnccn1 | 22 | – | – | – | –
O=C(NCCCNc1nc(Nc2ccccc2F)ncc1C1CC1)c1cccs1 | 820 | – | – | – | –
CC(C)c1cnc(Nc2cccc(F)c2)nc1NCCCNC(=O)C1CCC1 | > 1000 | – | – | – | –
O=C(NCCCNc1nc(Nc2cncnc2)ncc1C1CC1)C1CCC1 | 3200 | – | – | – | –
CC(C)N1CCC(n2cc(Nc3ncc(C4CC4)c(NCCCNC(=O)C4CCC4)n3)cn2)CC1 | 7 | 3000 | 42 | 24 | Papp A→B [6]: 1.4 ×10⁻⁶ cm/s; efflux ratio [7]: 16
Cc1nn(C)c2cc(Nc3ncc(C4CC4)c(NCCCNC(=O)C4CCC4)n3)ccc12 | 7 | 90 | 41 | 86 | –
CCc1cnc(Nc2cccc(F)c2)nc1NCCCNC(=O)C1CCC1 | 63 | – | – | – | –
O=C(NCCCNc1nc(Nc2ccc(N3CCOCC3)nc2)ncc1C1CC1)C1CCC1 | 15 | 490 | 92 | 15 | –
CN1CCN(C(=O)c2ccc(Nc3ncc(C4CC4)c(NCCCNC(=O)C4CCC4)n3)cc2)CC1 | 2 | – | – | – | IC50 ([2]; raw264.7): Not Active
O=C(NCCCNc1nc(Nc2cccc(NC(=O)N3CCCC3)c2)ncc1Br)c1cccs1 | 6 | – | – | – | –
O=C(NCCCNc1nc(Nc2cccc(F)c2)ncc1Br)c1cccc(N2CCOCC2)c1 | 3600 | – | – | – | –
Cn1ccc(Nc2ncc(C3CC3)c(NCCCNC(=O)C3CCC3)n2)n1 | > 1000 | – | – | – | –
O=C(NCCCNc1nc(NCc2ccc(F)cc2)ncc1C1CC1)c1cccs1 | > 10000 | – | – | – | –
O=C(NCCCNc1nc(Nc2cccc(F)c2)ncc1Br)c1ccc(C(F)(F)F)cc1 | 450 | – | – | – | –

SMILES | IC50 [1] [nM] | IC50 ([2]; read-out: IC50) [nM] | metabolised at 0.5 h [4] [%] | metabolised at 40 min [5] [%] | also measured
O=C(NCCCNc1nc(Nc2ccc(CN3CCCCC3)nc2)ncc1C1CC1)C1CCC1 | 9 | 1200 | – | – | Papp A→B [6]: 0.1 ×10⁻⁶ cm/s; efflux ratio [7]: 780
O=C(NCCCNc1nc(Nc2cccc(F)c2)ncc1Br)c1cccs1 | 9 | – | – | – | IC50 [3]: 130 nM
O=C(NCCCNc1nc(Nc2cccnc2)ncc1C1CC1)C1CCC1 | 13 | > 1000 | – | – | –
CC(C)n1cc(Nc2ncc(C3CC3)c(NCCCNC(=O)C3CCC3)n2)cn1 | 4 | 81 | 41 | 61 | –
O=C(NCCCNc1nc(Nc2cccc(Cn3cncn3)c2)ncc1C1CC1)C1CCC1 | 3 | 88 | – | 63 | –
O=C(NCCCNc1nc(Nc2ccc3c(c2)CN(C2CC2)CC3)ncc1C1CC1)C1CCC1 | 7 | 570 | 86 | 91 | –
O=C(NCCCNc1nc(Nc2cnn(CCN3CCOCC3)c2)ncc1C1CC1)C1CCC1 | 9 | 9000 | 68 | 46 | –
O=C(NCCCNc1nc(NC2CCCCC2)ncc1C1CC1)c1cccs1 | > 10000 | – | – | – | –
CN1CCC(C(=O)NCCCNc2nc(Nc3cccc(F)c3)ncc2Br)CC1 | 4300 | – | – | – | –
CN1CCC(c2ccc(Nc3ncc(C4CC4)c(NCCCNC(=O)C4CCC4)n3)cc2)CC1 | 8 | 660 | 30 | 23 | –
O=C(NCCCNc1nc(Nc2cccc(-c3cnco3)c2)ncc1C1CC1)C1CCC1 | 11 | 560 | 34 | 26 | –
Cn1ncc2cc(Nc3ncc(C4CC4)c(NCCCNC(=O)C4CCC4)n3)ccc21 | 16 | 380 | 40 | 42 | –
O=C(NCCCNc1nc(Nc2cccc(F)c2)ncc1Br)C1CCC1 | – | – | – | – | IC50 [3]: 68 nM
CCn1cc(Nc2ncc(C3CC3)c(NCCCNC(=O)C3CCC3)n2)cn1 | 7 | 140 | 54 | 37 | –
O=C(NCCCNc1nc(Nc2cnn(C3CCOCC3)c2)ncc1C1CC1)C1CCC1 | 2 | 280 | 33 | 25 | –
O=C(NCCCNc1nc(Nc2cccc(F)c2)ncc1C1CC1)C1CCC1 | 8 | 1300 | 74 | 80 | IC50 [3]: 580 nM
O=C(CCc1ccccc1)NCCCNc1nc(Nc2cccc(F)c2)ncc1Br | 560 | – | – | – | –
CN(C)Cc1ccc(Nc2ncc(C3CC3)c(NCCCNC(=O)C3CCC3)n2)cc1 | 6 | 550 | – | – | Papp A→B [6]: 1 ×10⁻⁶ cm/s; efflux ratio [7]: 56
O=C(NCCCNc1nc(Nc2cnn(C3CC3)c2)ncc1C1CC1)C1CCC1 | 10 | 130 | 24 | 32 | –
O=C(NCCCNc1nc(Nc2ccc(-n3cncn3)cc2)ncc1C1CC1)C1CCC1 | 3 | 150 | 35 | 23 | Papp A→B [6]: 10 ×10⁻⁶ cm/s; efflux ratio [7]: 3
COCCC(=O)NCCCNc1nc(Nc2cccc(F)c2)ncc1Br | 60 | – | – | – | –
